Data reported in paper PMC3266923, “Augmenter of Liver Regeneration (alr) Promotes Liver Outgrowth during Zebrafish Hepatogenesis” (PLoS ONE, 2012).

Columns and labels:
[1] = target: T1, zebrafish Alr (Danio rerio, UniProt A4QNU9); test: Ellman's reagent (free thiol) time course; assay type: biochemical; conditions: room temperature
T1 construct: gene gfer; full-length ORF (191 residues) in pET28b, N-terminal His-tag, expressed in E. coli BL21-DE3, Ni-NTA purified under native condition; about 23 kDa monomer, disulfide-linked dimer

[2] = target: T1, zebrafish Alr; test: UV-visible absorption spectrum of purified protein; assay type: binding; conditions: 15 uM protein, free FAD as reference; FAD co-purified from E. coli
[3] = target: T2, zebrafish Alr (Danio rerio, UniProt A4QNU9, C131S); test: UV-visible absorption spectrum of purified protein; assay type: binding; conditions: 15 uM protein, free FAD as reference; FAD co-purified from E. coli
T2 construct: gene gfer; full-length ORF (191 residues) in pET28b, N-terminal His-tag, expressed in E. coli BL21-DE3, Ni-NTA purified under native condition; about 23 kDa monomer, disulfide-linked dimer
T2 sequence (A4QNU9 1-191 C131S): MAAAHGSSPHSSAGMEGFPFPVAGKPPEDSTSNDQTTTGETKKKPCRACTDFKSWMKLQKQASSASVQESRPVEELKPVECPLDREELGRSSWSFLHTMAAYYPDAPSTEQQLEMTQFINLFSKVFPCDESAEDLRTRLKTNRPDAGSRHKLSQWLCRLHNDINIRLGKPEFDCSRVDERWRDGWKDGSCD

T1 sequence (A4QNU9 1-191): as the sequence (A4QNU9 1-191 C131S) above, with S131C counted along it

With OC(CS)C(O)CS (stereo not drawn) [DTT] the “Ellman's reagent (free thiol) time course” value [1] was “Zebrafish Alr oxidized DTT efficiently, while Alr^C131S completely lost this activity”.
In the case of Cc1cc2nc3c(=O)[nH]c(=O)nc-3n(C[C@H](O)[C@H](O)[C@H](O)COP(=O)(O)OP(=O)(O)OC[C@H]3O[C@@H](n4cnc5c(N)ncnc54)[C@H](O)[C@@H]3O)c2cc1C [FAD], the “UV-visible absorption spectrum of purified protein” value [2] is reported as “Zebrafish Alr also binds FAD as determined by spectroscopic absorption” and the “UV-visible absorption spectrum of purified protein” value [3] is reported as “wild type Alr protein and mutant Alr^C131S protein are characteristic of the FAD moiety”.
